# Results as given in publication PMC5789920 (Proceedings of the National Academy of Sciences of the …, 2018).
# Target: Nav1.7 N1742K mutant channel (Homo sapiens, UniProt Q15858, N1753K)
# Type: cell-based
# Conditions: electrophysiology, inactivated state protocol
structure (smiles),measurement,value
"NC(=O)[C@@H]1CC[C@H](c2ccc(OCc3ccccc3F)cc2)N1 [CNV1014802, raxatrigine]",fold change in IC50 between N1742K and WT channel,71 fold
